Species: Rattus norvegicus
Test: Open TG-GATES - Regimen: Daily Repeat
Format: toxicity, organism-based, Sprague-Dawley
Set-up: regimen Daily Repeat, gender Male, age 6 weeks
Conditions: in vivo, po, 0 mg/kg, route gavage, dose level Control; for APTT / Bas / Eos / Fbg / Hb / Ht / Lym / MCH / MCHC / MCV / Mono / Neu / PT / Plat / RBC / Ret / WBC: tissue Blood; for KIDNEY_L / KIDNEY_R / KIDNEY_TOTAL: tissue Kidney; for LIVER: tissue Liver; for A/G / ALP / ALT / AST / BUN / CRE / Ca / Cl / DBIL / GLC / IP / K / LDH / Na / PL / RALB / TBIL / TC / TG / TP / gamma-GTP: tissue Plasma

## CC(S)C(=O)NCC(=O)O (configuration not stated) [TIOPRONIN]
72 h, time 3 day
  TERMINAL_BW: 222.4 g
  APTT: 22.6 s
  Bas: 0%
  Eos: 1%
  Fbg: 300.2 mg/dL
  Hb: 13.5 g/dL
  Ht: 40.8%
  Lym: 81.6%
  MCH: 20.9 pg
  MCHC: 33.1%
  MCV: 63 fL
  Mono: 2.6%
  Neu: 14.2%
  PT: 15.7 s
  Plat: 112.4 x10_4/uL
  RBC: 647.2 x10_4/ul
  Ret: 6.8%
  WBC: 142.5 x10_2/uL
  KIDNEY_L: 1 g
  KIDNEY_R: 1 g
  KIDNEY_TOTAL: 2 g
  LIVER: 10.5 g
  A/G: 1.1
  ALP: 1395.4 IU/L
  ALT: 46.2 IU/L
  AST: 73.8 IU/L
  BUN: 17.4 mg/dL
  CRE: 0.2 mg/dL
  Ca: 10.5 mg/dL
  Cl: 106 meq/L
  DBIL: 0 mg/dL
  GLC: 202 mg/dL
  IP: 7.2 mg/dL
  K: 4.3 meq/L
  LDH: 188 IU/L
  Na: 140.8 meq/L
  PL: 137.6 mg/dL
  RALB: 2.9 g/dL
  TBIL: 0.004 mg/dL
  TC: 75 mg/dL
  TG: 86.6 mg/dL
  TP: 5.5 g/dL
  gamma-GTP: 1.6 IU/L
[…], time 7 day
  TERMINAL_BW: 250.2 g
  APTT: 21.4 s
  Bas: 0%
  Eos: 0.8%
  Fbg: 311.2 mg/dL
  Hb: 13.8 g/dL
  Ht: 40.6%
  Lym: 83%
  MCH: 20.7 pg
  MCHC: 33.9%
  MCV: 61 fL
  Mono: 2%
  Neu: 13.4%
  PT: 15.4 s
  Plat: 118.9 x10_4/uL
  RBC: 667 x10_4/ul
  Ret: 5.6%
  WBC: 124.9 x10_2/uL
  KIDNEY_L: 1.1 g
  KIDNEY_R: 1.1 g
  KIDNEY_TOTAL: 2.2 g
  LIVER: 11.5 g
  A/G: 1.2
  ALP: 1704.2 IU/L
  ALT: 37.4 IU/L
  AST: 68.6 IU/L
  BUN: 18.8 mg/dL
  CRE: 0.2 mg/dL
  Ca: 10.7 mg/dL
  Cl: 107.2 meq/L
  DBIL: 0 mg/dL
  GLC: 191.8 mg/dL
  IP: 7.1 mg/dL
  K: 4.5 meq/L
  LDH: 146.4 IU/L
  Na: 141.6 meq/L
  PL: 158.6 mg/dL
  RALB: 3 g/dL
  TBIL: 0.004 mg/dL
  TC: 83.2 mg/dL
  TG: 107.2 mg/dL
  TP: 5.4 g/dL
  gamma-GTP: 1.8 IU/L
[…], time 14 day
  TERMINAL_BW: 315.5 g
  APTT: 22.9 s
  Bas: 0%
  Eos: 1%
  Fbg: 299.2 mg/dL
  Hb: 14.1 g/dL
  Ht: 40.4%
  Lym: 82.6%
  MCH: 20.5 pg
  MCHC: 34.8%
  MCV: 58.9 fL
  Mono: 2.2%
  Neu: 14%
  PT: 15.6 s
  Plat: 118.7 x10_4/uL
  RBC: 686.8 x10_4/ul
  Ret: 5.3%
  WBC: 128.8 x10_2/uL
  KIDNEY_L: 1.2 g
  KIDNEY_R: 1.2 g
  KIDNEY_TOTAL: 2.4 g
  LIVER: 13.7 g
  A/G: 1.3
  ALP: 1485.6 IU/L
  ALT: 37 IU/L
  AST: 63.4 IU/L
  BUN: 19 mg/dL
  CRE: 0.2 mg/dL
  Ca: 10.3 mg/dL
  Cl: 105 meq/L
  DBIL: 0 mg/dL
  GLC: 205.8 mg/dL
  IP: 6.9 mg/dL
  K: 4.5 meq/L
  LDH: 157.8 IU/L
  Na: 139.2 meq/L
  PL: 135.6 mg/dL
  RALB: 3.1 g/dL
  TBIL: 0.006 mg/dL
  TC: 63.6 mg/dL
  TG: 135.6 mg/dL
  TP: 5.6 g/dL
  gamma-GTP: 2.6 IU/L
[…], time 28 day
  TERMINAL_BW: 385.3 g
  APTT: 24.5 s
  Bas: 0%
  Eos: 1%
  Fbg: 305.6 mg/dL
  Hb: 15.3 g/dL
  Ht: 43.2%
  Lym: 81.8%
  MCH: 19.6 pg
  MCHC: 35.3%
  MCV: 55.5 fL
  Mono: 1.8%
  Neu: 14.2%
  PT: 16 s
  Plat: 91.2 x10_4/uL
  RBC: 778.2 x10_4/ul
  Ret: 2.8%
  WBC: 114.1 x10_2/uL
  KIDNEY_L: 1.3 g
  KIDNEY_R: 1.4 g
  KIDNEY_TOTAL: 2.7 g
  LIVER: 15.9 g
  A/G: 1.2
  ALP: 1102.4 IU/L
  ALT: 35 IU/L
  AST: 61.4 IU/L
  BUN: 19.2 mg/dL
  CRE: 0.2 mg/dL
  Ca: 10.8 mg/dL
  Cl: 106.8 meq/L
  DBIL: 0 mg/dL
  GLC: 202.6 mg/dL
  IP: 6.7 mg/dL
  K: 4.1 meq/L
  LDH: 152.6 IU/L
  Na: 143.2 meq/L
  PL: 151.4 mg/dL
  RALB: 3.3 g/dL
  TBIL: 0.01 mg/dL
  TC: 78.2 mg/dL
  TG: 135.4 mg/dL
  TP: 5.9 g/dL
  gamma-GTP: 2 IU/L

— ChEMBL document CHEMBL3885861, “Open TG-GATES”
